The values below come from patent US5493027A, “Anticonvulsive agents and uses thereof” (priority 1993, dated 1996).

In general, NOAEL refers to the highest dose or exposure tested at which no adverse effect was seen.

In series [1] the test system is maximal electroshock seizures (MES). Nature of the series: animal or person. It is filed as in vivo, male Carworth Farms number-1 mice. Conditions: for MES: mice i.p.; for minimal effective dose: Mus musculus, ip. On the procedure:
(§1) Compounds were screened for anticonvulsant activity in male Carworth Farms number-1 mice. Test solutions of all compounds were prepared in 30% polyethylene glycol 400, and animals were dosed intraperitoneally at either 30 minutes or 4 hours prior to testing. Testing was conducted on four mice at each of three dose levels (30, 100, and 300 mg/kg).
(§2) Maximal electroshock seizures (MES) were elicited with a 60 cycle alternatiing current of 50-mA intensity (five to seven times that necessary to evoke minimal electroshock threshold seizures). Current was delivered via corneal electrodes for 0.2 s. A drop of 0.9% saline was instilled in the eye prior to application of electrodes. Abolition of the hindlimb tonic extension component of the seizure was defined as protection in the MES test.
(§3) Biological testing--Compounds were screened for anticonvulsant activity in male Carworth Farms number-one mice. Test solutions of all compounds were prepared in 30% polyethylene glycol 400, and animals were dosed intraperitoneally at either 30 min or 4 h prior to testing. Testing was conducted on four mice at each of three dose levels (30, 100, and 300 mg/kg).
(§4) Maximal electroshock seizures (MES) were elicited with a 60 cycle alternating current of 50-mA intensity (five to seven times that necessary to evoke minimal electroshock threshold seizures). Current was delivered via corneal electrodes for 0.2 s. A drop of 0.9% saline was instilled in the eye prior to application of electrodes. Abolition of the hindlimb tonic extension component of the seizure was defined as protection in the MES test.

In series [2] the target is T1, strychnine-insensitive glycine binding site of the NMDA receptor (Rattus norvegicus, UniProt P35439).
T1 construct: Membranes were prepared from rat cerebral cortex; from tissue; host or cells: rat cerebral cortex, "buffy coat" membranes
Nature of the series: Inhibition of [3H]glycine specific binding (strychnine-insensitive) in rat cerebral cortex membranes. Conditions: 10 uM compound. Here is the method:
Binding Studies--Inhibition of [^3 H]glycine specific binding was assayed using [^3 H]glycine (43 Ci/mmol) obtained from DuPont-New England Nuclear. […] Membranes were prepared from rat cerebral cortex and assays were conducted in Na-free 50 mM HEPES (Sigma) at pH 7.4. Membranes were incubated in a final volume of 1 ml with 20 nM [^3 H]glycine and a 10 uM concentration of the test compound. Although experience has shown that [^3 H]glycine binding in this preparation is strychnine insensitive, 10 uM strychnine was added to the assay mixtures to eliminate the possibility that any effects studied could be mediated through a strychnine-sensitive process. Incubation was continued for 20 min at 4° C. Non-specific binding was determined in the presence of 1 mM glycine and subtracted. All conditions were tested in triplicate in 3 different assays. Binding was terminated using a Brandel M-24C cell harvester employing rapid filtration through GF/C glass fiber filters pre-soaked in 1% (V/V) polyethylenimine. Filters were washed twice with 5 ml buffer cooled to 4° C. Radioactivity bound to the filters was determined with a Beckman LS-500OTD liquid scintillation counter.

Series [3] relates to pentylenetetrazole (Metrazol) induced seizures. Kind of series: Subcutaneous pentylenetetrazole (Metrazol) seizure threshold test (Met) in mice. The format is in vivo, male Carworth Farms number-1 mice. Conditions: for Sc MET / Sc MET repeated: protected: mice i.p.; for minimal effective dose: Mus musculus, ip; for Sc MET repeated: protected: repeat. Here is the method: as §1
(§5) In the subcutaneous pentylenetetrazole (Metrazol) seizure threshold test(met), 85 mg/kg pentylenetetrazole was administered as a 0.5% solution in the posterior midline. Protection in this test was defined as a failure to observe a single episode of clonic spasms of at least 5 s duration during the 30 minute period following administration of the convulsive agent.
as §3
(§6) In the subcutaneous pentylenetetrazole (Metrazol) seizure threshold test (Met), 85 mg/kg pentylenetetrazole was administered as a 0.5% solution in the posterior midline. Protection in this test was defined as a failure to observe a single episode of clonic spasms of at least 5 s duration during the 30 min period following administration of the convulsive agent.

Series [4] deals with neurological deficit (rotorod). Nature of the series: Rotorod test for neurological deficit (TOX) in mice. Conditions: mouse, in vivo. The format is in vivo, male Carworth Farms number-1 mice. Here is the method: as §1
(§7) Animals were also tested for neurological deficit using the rotorod. After treatment, the animal was placed on a 1 inch diameter knurled plastic rod rotating at 6 rpm. Neurologic deficit was defined as the failure of the animal to remain on the rod for 1 minute.
as §3
(§8) Animals were also tested for neurological deficit using the rotorod. After treatment, the animal was placed on a 1 inch diameter knurled plastic rod rotating at 6 rpm. Neurologic deficit was defined as the failure of the animal to remain on the rod for 1 min.

Series [5] relates to seizures induced by electroshock and pentylenetetrazole. Nature of the series: Anticonvulsant testing, overall (MES and Met). It is filed as in vivo, male Carworth Farms number-1 mice. Conditions: for minimal effective dose: Mus musculus, ip, read-out: dose level with anticonvulsant activity (test not given); for minimal effective dose / anticonvulsant activity (words): mice, intraperitoneal; for CLASS: Phase I Identification: mice, i.p., classes not defined in the patent. On the procedure:
as §1, §2, §5, §3, §4, §6

Series [6] concerns quinolinic acid induced seizures. Conditions: intracerebroventricular, CD-1 mice (Baron et al., 1990); cited from earlier work.
Series [7] is described as follows: Rotorod test for neurological deficit (TOX) in mice. It is filed as in vivo, male Carworth Farms number-1 mice. Conditions: mouse, in vivo, ip. On the procedure:
as §1, §7, §3, §8
In general terms: In the rotarod test animals must keep their balance on a rotating rod.

The next series deals with anticonvulsant activity. Conditions: Wong et al., 1986; Singh et al., 1990; cited from earlier work.
The nature of series [8]: Solubility in aqueous solutions and in chloroform and other non-polar solvents. It is filed as physicochemical.
The test system of series [9] is inhibitory (strychnine-sensitive) glycine receptors in the spinal cord. Conditions: White et al. 1989; Huettner 1989; cited from earlier work.
The test system of another series is kainate receptor. Conditions: cited from earlier work.
In the next series the test system is quisqualate receptor. Conditions: cited from earlier work.
Another series relates to NMDA receptor. Conditions: cited from earlier work.
[10] abbreviates: Table 7, value without parentheses = effective dose, read-out: Effective Intraperitoneal Dose, MES.
Setting [11] is: mice, intraperitoneal, read-out: dose active in MES test.
The mark [12] stands for this setting: Table 7, value without parentheses = effective dose, read-out: Effective Intraperitoneal Dose, Met.
The mark [13] stands for this setting: mice, intraperitoneal, read-out: dose active in Met test.

SMILES strings stand for the structures. Like-named read-outs stand apart in the source and are kept apart here. A value given as a limit tells only on which side of the number the result lay.

With `CNc1cc(C(=O)O)nc2cc(Cl)cc(Cl)c12` [5,7-di-Cl-4-methylamino-kyn-2-COOH, 4-methylamino-5,7-dichloro-2-quinoline carboxylic acid], the MES was 0/1 in series [1] (30 minutes, 30 mg/kg); 0/3 in [1] (30 minutes, 100 mg/kg); 1/1 in series [1] (30 minutes, 300 mg/kg); 0/1 in series [1] (4 hours, 30 mg/kg); 0/3 in series [1] (4 hours, 100 mg/kg); 0/1 in [1] (4 hours, 300 mg/kg). The minimal effective dose is 100 mg/kg in series [1] (setting [10]), 100 mg/kg in [1] (setting [11]), 300 mg/kg in [3] (setting [12]) and ≤ 100 mg/kg in series [5]. For the same molecule, in series [2], the “[3H]glycine binding inhibition” value was “best inhibitor of [^3 H]glycine binding”. Further, the “Sc MET” value in series [3] (30 minutes, 30 mg/kg) is 0/2; in series [3] (30 minutes, 100 mg/kg) it was 0/1; in series [3] (30 minutes, 300 mg/kg), 1/1; in series [3] (4 hours, 30 mg/kg), 0/1; in series [3] (4 hours, 100 mg/kg), 0/1; in series [3] (4 hours, 300 mg/kg), 0/1. For the same molecule, the “Effective Intraperitoneal Dose, Rotorod” value in series [4] (ip) was found to be 100 mg/kg. Moreover, the “dose causing neurological deficit on rotorod” value in series [4] (ip) stood at 300 mg/kg. The TOX comment entry in series [4] (ip, 300 mg/kg) is recorded as “Unable to hold onto rotorod”. Also, the CLASS in series [5] is listed as 2.
As to `O=C(O)c1cc(O)c2c(Cl)cc(Cl)cc2n1` [5,7-di-Cl-kyn-2-COOH], the minimal effective dose in series [3] (setting [12]) and in series [3] (setting [13]) was 300 mg/kg in each case. Further, in series [3] (mice, intraperitoneal), the “Met activity” value is on record as “mild Met activity”. In series [6], the “protection against quinolinic acid induced seizures” value was “protect against quinolinic acid induced seizures”. The molecule also showed an NOAEL in [7] of 300 mg/kg.
As for `CCOC(=O)c1cc(O)c2c(F)cc(F)cc2n1` [5,7-di-F-kyn-2-ethyl ester], the minimal effective dose in [1] (setting [10]) and in [1] (setting [11]) was 300 mg/kg in each case. Further, in series [1] (mice, intraperitoneal), the “MES activity” value is “MES activity at this dose level”. For the same molecule, the “(Maximum Ineffective) Intraperitoneal Dose, Met” value in series [3] (Table 7, value in parentheses = maximum ineffective dose) is reported as 300 mg/kg. Moreover, in [7], the no observed adverse effect level (NOAEL) was found to be 300 mg/kg.
Take `CCCCOC(=O)c1cc2cc(F)ccc2[nH]1` [5-F-indole-2-butyl ester, butyl ester of 5-fluoro-indole-2-carboxylic acid]: in series [2], the “[3H]glycine binding inhibition” value is on record as “binding characteristics were similar to those of the ethyl ester”. For the same molecule, the minimal effective dose in [3] (setting [12]), in series [3] (setting [13]) and in [5] was 300 mg/kg throughout. This molecule also yielded a no-observed-adverse-effect level (NOAEL) in series [7] of 300 mg/kg.
Consider `CCOC(=O)c1cc2cc(F)ccc2[nH]1` [5-F-indole-2-ethyl ester, 5-fluoro-indole-2-ethyl carboxylate], for which the minimal effective dose in series [1] (setting [10]) turned out to be 100 mg/kg; in [1] (setting [11]) it was 100 mg/kg; in series [3] (setting [12]), 300 mg/kg; in series [3] (setting [13]) it was 300 mg/kg. In [7], this molecule returned a no observed adverse effect level (NOAEL) of 300 mg/kg.
Turning to `Cc1c(Cl)ccc2c(O)cc(C(=O)O)nc12` [7-Cl-8-methyl-kyn-2-COOH], the minimal effective dose in series [3] (setting [12]) and in series [3] (setting [13]) was 300 mg/kg each time. The NOAEL in series [7] was 300 mg/kg.
Regarding `CCOC(=O)c1cc(O)c2ccc(Cl)cc2n1` [7-Cl-kyn-2-ethyl ester], the minimal effective dose in [3] (setting [12]) and in series [3] (setting [13]) was 300 mg/kg throughout. This molecule displayed an NOAEL in [7] of 300 mg/kg.
For the molecule `C[C@]12N[C@H](Cc3ccccc31)c1ccccc12` [MK-801], in the series with anticonvulsant activity, the “anticonvulsant activity (words, literature)” value is “demonstrate anticonvulsant activity”.
In the case of `CCOC(=O)c1cc(NC)c2c(Cl)cc(Cl)cc2n1` [ethyl 4-methylamino-5,7-dichloro-2-quinoline carboxylate], the MES in series [1] (30 minutes, 30 mg/kg) was 0/1; in series [1] (30 minutes, 100 mg/kg), 0/3; in series [1] (30 minutes, 300 mg/kg) it was 0/1; in series [1] (4 hours, 30 mg/kg) it was 0/1; in series [1] (4 hours, 100 mg/kg), 0/3; in series [1] (4 hours, 300 mg/kg), 0/1. Also, the minimal effective dose in series [1] (setting [11]) was 30 mg/kg; in series [3] (setting [12]), 30 mg/kg; in series [3] (setting [13]) it was 30 mg/kg; in series [5], ≤ 100 mg/kg. In addition, in series [8], the “solubility in chloroform and other non-polar solvents” value was “appreciably soluble in chloroform and other non-polar solvents”. In addition, the “[3H]glycine binding inhibition” value in series [2] is given as “poor binding inhibition”. For the same molecule, the “Sc MET” value in series [3] (30 minutes, 30 mg/kg) is recorded as 1/1; in series [3] (30 minutes, 100 mg/kg), 1/1; in [3] (30 minutes, 300 mg/kg), 1/1; in series [3] (4 hours, 30 mg/kg), 0/1; in [3] (4 hours, 100 mg/kg), 0/1; in series [3] (4 hours, 300 mg/kg) it was 0/1. In addition, the “Sc MET repeated: protected” value in series [3] (30 minutes, 30 mg/kg) was 1/4; in [3] (30 minutes, 100 mg/kg) it was 2/4; in series [3] (30 minutes, 300 mg/kg) it was 4/4. For the same molecule, the “Sc MET repeated: toxic” value in [4] (30 mg/kg), in series [4] (100 mg/kg) and in [4] (300 mg/kg) was 0/4 each time. In series [7], this molecule displayed an NOAEL of 300 mg/kg. Moreover, the CLASS in series [5] worked out at 1. Further, the “anticonvulsant activity (words)” value in series [5] is reported as “high anticonvulsant activity”; in series [5] (listed as ethyl 4-methylamino-5,7-dichloro-2-quinoline carboxylate), “most potent anticonvulsant”; in series [5] (listed as ethyl-4-methylamino-5,7-dichloro-2-quinoline carboxylate), “particularly effective anticonvulsant agent”.
In the case of `O=C(O)c1cc2ccccc2[nH]1` [indole-2-carboxylic acid], the “activity at strychnine-sensitive sites” value in series [9] is “inactive”.
As to `O=C(O)c1cc(O)c2ccccc2n1` [kynurenic acid, 4-hydroxy-2-quinolinecarboxylic acid], the “excitatory amino acid antagonist activity at kainate receptors” value in the series with kainate receptor is on record as “nonselective excitatory amino acid antagonist”. In the series on quisqualate receptor, the “excitatory amino acid antagonist activity at quisqualate receptors” value is recorded as “nonselective excitatory amino acid antagonist”. Also, the “excitatory amino acid antagonist activity at NMDA receptors” value in the series with NMDA receptor is “nonselective excitatory amino acid antagonist”. The “activity at strychnine-sensitive sites” value in series [9] was “inactive”.
